Test results as given in ChEMBL document CHEMBL1833824, “Effects of cyclization on stability, structure, and activity of α-conotoxin RgIA at the α9α10 nicotinic acetylcholine receptor and GABA(B) receptor” (J Med Chem, 2011).

Experiment: Activation of human alpha-9/rat alpha-10 nACHR expressed in Xenopus oocytes assessed as increase of acetylcholine-induced current
Type: cell-based
Conditions: Oocyte

SMILES: CC(=O)OCC[N+](C)(C)C [ACETYLCHOLINE]
- EC50: 50 µM
